Reference: patent publication US20100105729A1, “ARYL-SUBSTITUTED HETEROCYCLIC PDE4 INHIBITORS AS ANTI-INFLAMMATORY AGENTS” (KALYPSYS, INC., priority 2006, published 2010)

Tests used:
[1] = target: T1, PDE4B (Homo sapiens, UniProt Q07343); test: PDE4 IMAP Assay; type: biochemical; conditions: catalytic domain of PDE4B, fluorescence polarization
T1 construct: hexa-histidine (His6) (N); made in house
Procedure, shortened: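 His-tagged PDE4B catalytic domain was preincubated with compound for 10 min, then given fluorescent cAMP substrate for 2 h at room temperature. IMAP binding reagent was added for 10–30 min to capture the nucleotide monophosphate product, and fluorescence polarization was read.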

[2] = tested on: PDE4; test: PDE4 Cellular CNG Assay; type: cell-based; conditions: HEK293 cells stably expressing the CNG channel
Excerpt: Compounds may be screened for functional potency in in vitro cellular assays for their ability to inhibit the activity of phosphodiesterase (PDE) enzymes. A commercial membrane potential assay, Molecular Device's membrane potential assay kit, was modified and utilized to measure the inhibitory activity of compounds on PDE isoforms in living cells. The cellular assay utilizes genetically engineered cyclic nucleotide-gated (CNG) channels as cyclic-AMP (cAMP) sensors. On binding cAMP these ion channels open, allowing the flow of cations across the plasma membrane. CNG channel activity can be monitored by measuring Ca^2+influx in cell populations. The influx of Ca causes a change in membrane potential that is measured by voltage sensitive dyes. PDE inhibitors prevent the degradation of cAMP that is generated by adenylyl cyclases that are activated upon stimulation of G protein-coupled receptors (GPCR) linked to the cAMP pathway. In brief, Molecular Device's membrane potential dye was added to HEK293 cells stably expressing the CNG channel and incubated for 2 hours at room temperature. Test compounds were then added to the cells and incubated for 15 minutes. A GPCR agonist was then added to the cells to stimulate the cAMP pathway and incubated for 45 minutes. Fluorescent measurements were then conducted with either the Molecular Devices Acquest or Analyst. PDE inhibitors will inhibit the degradation of cAMP and cause an increase in fluorescent signal. Roflumilast and Rolipram are the positive controls used in the assay.

[3] = tested on: recombinant human PDE4; conditions: reported value; read-out: IC50 with respect to inhibiting recombinant human PDE4; cited from earlier work

T1 sequence (Q07343 330-659 limits assumed, species assumed): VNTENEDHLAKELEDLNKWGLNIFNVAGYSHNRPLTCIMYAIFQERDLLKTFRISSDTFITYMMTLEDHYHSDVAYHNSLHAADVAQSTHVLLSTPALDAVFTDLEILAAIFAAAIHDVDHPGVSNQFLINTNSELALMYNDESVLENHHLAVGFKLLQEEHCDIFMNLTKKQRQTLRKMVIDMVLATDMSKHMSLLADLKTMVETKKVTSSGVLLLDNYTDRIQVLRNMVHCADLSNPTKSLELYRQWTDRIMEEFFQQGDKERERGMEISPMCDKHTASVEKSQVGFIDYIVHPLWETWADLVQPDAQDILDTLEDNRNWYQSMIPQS

SMILES | inhibition at 10 µM [1] | PDE4 Cellular CNG Assay Activity at 10 μM [2] | IC50 [3]
COc1ccc(C2=NN(C(=O)c3ccccc3Cl)C(c3ccc(F)cc3)C2)cc1OC (stereo not drawn) [Example 31, (2-chlorophenyl)(3-(3,4-dimethoxyphenyl)-5-(4-fluorophenyl)-4,5-dihydro-1H-pyrazol-1-yl)methanone] | ≥ 50% | + (+ indicates Activity ≧50% at 10 μM) | 
COc1ccc(C2=NN(C(=O)c3cccs3)C(c3ccccc3F)C2)cc1OC (stereo not drawn) [Example 40, (3-(3,4-dimethoxyphenyl)-5-(2-fluorophenyl)-4,5-dihydro-1H-pyrazol-1-yl)(thiophen-2-yl)methanone] | ≥ 50% | − (− indicates Activity <50% at 10 μM) | 
COc1ccc(C2=NN(C(=O)c3cc(OC)c(OC)c(OC)c3)C(c3ccc(F)cc3)C2)cc1OC (stereo not drawn) [Example 42, (3-(3,4-dimethoxyphenyl)-5-(4-fluorophenyl)-4,5-dihydro-1H-pyrazol-1-yl)(3,4,5-trimethoxyphenyl)methanone] | ≥ 50% | + (+ indicates Activity ≧50% at 10 μM) | 
COc1ccc(C2=NN(C(=O)c3cc(OC)c(OC)c(OC)c3)C(c3cccc([N+](=O)[O-])c3)C2)cc1OC (stereo not drawn) [Example 77, (3-(3,4-dimethoxyphenyl)-5-(3-nitrophenyl)-4,5-dihydro-1H-pyrazol-1-yl)(3,4,5-trimethoxyphenyl)methanone] | ≥ 50% | + (+ indicates Activity ≧50% at 10 μM) | 
COc1ccc(C2CNC(=O)C2)cc1OC1CCCC1 (stereo not drawn) [rolipram] |  |  | ~200 nM
